Source: patent publication EP4603105A1, “PHARMACEUTICAL COMPOSITION CONTAINING CYCLIC COMPOUND HAVING SELECTIVE KRAS INHIBITORY EFFECT AGAINST HRAS AND NRAS” (CHUGAI SEIYAKU KABUSHIKI KAISHA, priority 2022, dated 2024)
Where a SMILES comes first, the peptide text is derived from it. Bridges are numbered along the chain shown (N, C = ends). [ ]: non-standard residue; d: D form. The star is where a group is joined. hPhe(3-Cl-4-CF3) = N[C@@H](CCc1ccc(C(F)(F)F)c(Cl)c1)C(=O)O; NPrPhe(4-CF3) = CCCN[C@@H](Cc1ccc(C(F)(F)F)cc1)C(=O)O; NMeAbu(4,4,4-F3) = CN[C@@H](CC(F)(F)F)C(=O)O; NMePhe(4-Me) = CN[C@@H](Cc1ccc(C)cc1)C(=O)O; NMeGly(cPent) = CN[C@H](C(=O)O)C1CCCC1; NMeD = CN[C@@H](CC(=O)O)C(=O)O; NMeL = CN[C@@H](CC(C)C)C(=O)O; Morpholide = C1CN(*)CCO1; Ac5c = NC1(C(=O)O)CCCC1; Aze = O=C(O)[C@@H]1CCN1; Ac4c = NC1(C(=O)O)CCC1; NEtG = CCNCC(=O)O; Sar = CNCC(=O)O

How the values were obtained:
[1] = tested on: human lung cancer strain NCI-H441; assay type: cell-based
Outline: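 Readout: […] after the ATP-based reagent. Compound: serial dilutions in dimethyl sulfoxide.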

HRAS wild-type protein = HRAS wild-type protein (Homo sapiens, UniProt P01112); experiment: Binding to HRAS by surface plasmon resonance (SPR), KD and KD ratio to KRAS
Outline: (§1)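 Affinity is measured by surface plasmon resonance at 30°C against captured, GDP-loaded RAS carrying a biotinylated Avi tag. Compounds are titrated by single-cycle kinetics, and KD comes from a 1:1 fit.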

[2] = target: GDP-bound NRAS wild-type protein (Homo sapiens, UniProt P01111); experiment: Binding to NRAS by surface plasmon resonance (SPR), KD and KD ratio to KRAS
Outline: as §1

[3] = ratio of KD for HRAS wild-type protein to KD for KRAS
[4] = ratio of KD for GDP-bound NRAS wild-type protein to KD for KRAS

Chain of HRAS wild-type protein (P01112 whole entry): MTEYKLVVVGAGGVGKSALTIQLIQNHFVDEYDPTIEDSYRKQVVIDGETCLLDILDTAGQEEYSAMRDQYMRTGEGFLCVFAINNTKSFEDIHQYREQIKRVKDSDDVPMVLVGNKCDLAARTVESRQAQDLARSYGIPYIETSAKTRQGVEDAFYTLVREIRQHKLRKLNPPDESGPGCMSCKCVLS
Chain of GDP-bound NRAS wild-type protein (P01111 whole entry): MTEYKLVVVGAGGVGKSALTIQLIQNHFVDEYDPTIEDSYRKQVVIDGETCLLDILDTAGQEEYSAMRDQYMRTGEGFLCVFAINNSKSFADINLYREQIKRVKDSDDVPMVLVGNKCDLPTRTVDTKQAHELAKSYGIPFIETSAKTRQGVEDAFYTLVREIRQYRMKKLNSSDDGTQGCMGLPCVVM

Row | SMILES | IC50 [1] | HRAS /KRAS (HRAS wild-type protein; [3]) | NRAS /KRAS [2, 4] | HRAS /KRAS (HRAS wild-type protein; ratio of KD value for HRAS wild-type protein to KD value for KRAS (SPR)) | NRAS /KRAS ([2]; ratio of KD value for GDP-bound NRAS wild-type protein to KD value for KRAS (SPR)) | HRAS /KRAS (HRAS wild-type protein; ratio of the KD value with respect to HRAS wild-type protein to the KD value with respect to KRAS) | NRAS /KRAS ([2]; ratio of the KD value with respect to GDP-bound NRAS wild-type protein to the KD value with respect to KRAS)
1 | CCCN1C(=O)CN(C)C(=O)CN(C)C(=O)[C@H]([C@@H](C)CC)NC(=O)[C@H](CC(F)(F)F)N(C)C(=O)C[C@@H](C(=O)N2CCOCC2)N(C)C(=O)[C@H](C2CCCC2)N(C)C(=O)C2(CCCC2)NC(=O)[C@@H]2CCCN2C(=O)[C@H](CCc2ccc(C(F)(F)F)c(Cl)c2)NC(=O)CN(C)C(=O)[C@@H]1Cc1ccc(C(F)(F)F)cc1 [PP0187] ([NMeAbu(4,4,4-F3)]I[Sar][Sar][NPrPhe(4-CF3)][Sar][hPhe(3-Cl-4-CF3)]P[Ac5c][NMeGly(cPent)][NMeD]-Morpholide; lactam N-11) | 3 nM | C (A compound having a KD ratio of 0.1 or more and less than 3 is denoted as C) | B (a compound having 3 or more and less than 10 is denoted as B) | – | – | – | –
2 | CCCN1C(=O)[C@@H]2CCN2C(=O)CN(C)C(=O)[C@H]([C@@H](C)CC)NC(=O)[C@H](CC(C)C)N(C)C(=O)C[C@@H](C(=O)N2CCOCC2)NC(=O)[C@H](C2CCCC2)N(C)C(=O)C2(CCC2)NC(=O)[C@@H]2CCCN2C(=O)[C@H](CCc2ccc(C(F)(F)F)c(Cl)c2)NC(=O)CN(C)C(=O)[C@@H]1Cc1ccc(C(F)(F)F)cc1 [PP0350] ([NMeL]I[Sar][Aze][NPrPhe(4-CF3)][Sar][hPhe(3-Cl-4-CF3)]P[Ac4c][NMeGly(cPent)]D-Morpholide; lactam N-11) | 69.8 nM | B (a compound having 3 or more and less than 10 is denoted as B) | C (A compound having a KD ratio of 0.1 or more and less than 3 is denoted as C) | – | – | – | –
3 | CCO[C@@H]1C[C@H]2C(=O)NC3(CCC3)C(=O)N(C)[C@@H](C(CC)CC)C(=O)N(C)[C@H](C)CC(=O)N(C)[C@@H](CC3CC3)C(=O)N[C@@H]([C@@H](C)CC)C(=O)N(C)CC(=O)N(C)[C@H]3C/C=C\CCN(C3=O)[C@@H](Cc3ccc(F)cc3)C(=O)N(C)CC(=O)N[C@@H](CCc3cc(F)c(C(F)(F)F)c(F)c3)C(=O)N2C1 [PP1521] | 173 nM | – | – | B (a compound having 3 or more and less than 10 is denoted as B) | A (a compound having 10 or more and less than 20 is denoted as A) | – | –
4 | CC[C@H](C)[C@@H]1NC(=O)[C@H](CC(C)C)N(C)C(=O)C[C@@H](C(=O)N2CCOCC2)N(C)C(=O)[C@H](C2CCCC2)N(C)C(=O)C2(CCCC2)NC(=O)[C@@H]2CCCN2C(=O)[C@H](CCc2ccc(C(F)(F)F)c(Cl)c2)NC(=O)CN(C)C(=O)[C@H](Cc2ccc(C)cc2)N(C)C(=O)CN(CC)C(=O)CN(C)C1=O [PP0019] ([NMeL]I[Sar][NEtG][NMePhe(4-Me)][Sar][hPhe(3-Cl-4-CF3)]P[Ac5c][NMeGly(cPent)][NMeD]-Morpholide; lactam N-11) | 6.7 nM | C (A compound having a KD ratio of 0.1 or more and less than 3 is denoted as C) | C (A compound having a KD ratio of 0.1 or more and less than 3 is denoted as C) | – | – | – | –
5 | C=CC[C@H]1C(=O)N[C@@H]([C@@H](C)CC)C(=O)N(C)CC(=O)N(C)[C@H]2CCCCN(C2=O)[C@@H](Cc2ccc(C(F)(F)F)cc2)C(=O)N(C)CC(=O)N[C@@H](CCc2cc(F)c(C(F)(F)F)c(F)c2)C(=O)N2C[C@H](OCC)C[C@H]2C(=O)NC2(CCC2)C(=O)N(C)[C@@H](C2CCCC2)C(=O)N(C)[C@H](C(=O)N2CCOCC2)CC(=O)N1C [PP0710] | 4.9 nM | – | – | – | – | B (a compound having 3 or more and less than 10 is denoted as B) | C (A compound having a KD ratio of 0.1 or more and less than 3 is denoted as C)
6 | CCO[C@@H]1C[C@H]2C(=O)NC3(CC(C)(C)C3)C(=O)N(C)[C@@H](C(CC)CC)C(=O)N(C)[C@H](C(=O)N(C)C)CC(=O)N(C)[C@H]3CCCC/C=C/c4ccc(cc4)C[C@@H](C(=O)N(C)CC(=O)N[C@@H](CCc4ccc(Cl)c(Cl)c4)C(=O)N2C1)N1CC/C=C\C[C@@H](C1=O)N(C)C(=O)CN(C)C(=O)[C@H]([C@@H](C)CC)NC3=O [PP3045] | 15.9 nM | A (a compound having 10 or more and less than 20 is denoted as A) | AA (a compound having 20 or more is denoted as AA) | – | – | – | –
